In publication PMC7125560 (Bioorganic & Medicinal Chemistry, 2007):

How the values were obtained:
SARS-CoV = settings: read-out: EC50 (SARS-CoV); cited from earlier work
[1] = test system: HCV subgenomic replicon RNA; assay: real-time RT-PCR quantification of replicon RNA; assay type: cell-based, hepatitis C virus (HCV); settings: two-day incubation

Compound | EC50 (SARS-CoV) [µM] | replicon RNA amount ([1]; 12.5 μM) | replicon RNA amount ([1]; 25 μM) [%]
O=C(OC[C@H]1C[C@@H](n2cnc3c(Cl)ncnc32)[C@@H]1CO)c1ccccc1 [Compound 5] | 14.5 |  | 
OC[C@H]1C[C@@H](n2cnc3c(Cl)ncnc32)[C@@H]1CO [Compound 6] | > 300 |  | 
O=C(OC[C@H]1O[C@@H](n2cnc3c(Cl)ncnc32)C[C@@H]1O)c1ccccc1 [Compound 10, 9-(5-O-benzoyl-β-D-2-deoxyribofuranosyl)-6-chloropurine] |  | approximately 45% | ~6
